The source of these data is publication PMC9431551, “Isolation of the Thermostable β-Glucosidase-Secreting Strain Bacillus altitudinis JYY-02 and Its Application in the Production of Gardenia Blue” (Microbiology Spectrum, 2022).

The test relates to T1, recombinant β-glucosidase of B. altitudinis JYY-02 (bgl).
T1 construct: full-length ORF 1,467 bp, 488 residues, N-terminus MTTIKG from forward primer; E. coli BL21(DE3); 54 kDa
Description: p-nitrophenol release at […] nm, Lineweaver-Burk plot. The test is classed as biochemical, Bacillus altitudinis. The settings on record: citrate-disodium hydrogen phosphate buffer 0.2 M, pH 5.6, 55°C (standard assay); abstract prints 0.331 mM.

Turning to `O=[N+]([O-])c1ccc(O[C@@H]2O[C@H](CO)[C@@H](O)[C@H](O)[C@H]2O)cc1` [p-nitrophenyl-β-D-glucopyranoside], the Km (usually the substrate concentration at which the rate is half of its maximum) stood at 332 µM.
